Laboratory results published in patent publication US6150365A, “Anxiety method” (priority 2000, dated 2000).
Entries after “also recorded” stand apart in the source; their conditions may differ. Read-outs that look alike come from different tables or passages of the source.

How the values were obtained:
[1] = system: rat pup ultrasonic vocalization; experiment: Rat pup isolation-induced ultrasonic vocalization test; format: in vivo, rat (Harlan Sprague-Dawley pups); conditions: for suppression of rat pup ultrasonic vocalization: 0.03-1 mg/kg, cold plate; for suppression of rat pup ultrasonic vocalization / ED50: sc, 30 min prior to test; for ED50: Rattus norvegicus, 0.5 h, doses refer to weight of the salt, read-out: ID50, dose predicted to reduce the number of calls by 50%; for anxiolytic activity in rat pup isolation-induced ultrasonic vocalization model (in words): in vivo
[2] = system: rat pup locomotor activity; experiment: Locomotor activity (grid cell crossings) in the rat pup; format: in vivo, rat (Harlan Sprague-Dawley pups); conditions: sc; for locomotor activity (in words): 0.03-1 mg/kg
clinical = format: in vivo
From the text: The human dosing schedule is shown below. |______________________________________ […] | Interval BID Dose (mg) (Study Day) |______________________________________ […] | 3 15 15 […] | 5 30 25 |______________________________________

dorsal raphe neurons = conditions: systemic administration (I.V. and intragastric for metabolites), rats; cited from earlier work
[3] = cited from earlier work
human 5-HT1A receptor = target: T1, human 5-HT1A receptor (Homo sapiens, UniProt P08908); experiment: 5-HT1A receptor binding assay (3H-8-OH-DPAT)
T1 construct: expressed in transfected cells; host or cells: HEK293
T1 sequence (P08908 1-422): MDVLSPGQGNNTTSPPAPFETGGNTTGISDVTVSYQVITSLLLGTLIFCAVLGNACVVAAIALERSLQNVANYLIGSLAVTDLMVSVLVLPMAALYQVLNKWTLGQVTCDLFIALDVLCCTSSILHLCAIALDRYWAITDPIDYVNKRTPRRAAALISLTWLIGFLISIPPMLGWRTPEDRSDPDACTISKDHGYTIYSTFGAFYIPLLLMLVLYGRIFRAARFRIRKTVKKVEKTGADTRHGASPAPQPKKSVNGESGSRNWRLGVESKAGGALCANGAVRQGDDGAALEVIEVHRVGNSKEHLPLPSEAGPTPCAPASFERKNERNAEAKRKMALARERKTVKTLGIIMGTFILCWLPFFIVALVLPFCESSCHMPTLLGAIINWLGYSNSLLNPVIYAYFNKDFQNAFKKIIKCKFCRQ

[4] = Modified Vogel Conflict test; format: in vivo; conditions: earlier in-house testing
From the text: Earlier in-house functional testing of BMY 28674 utilized an in vivo test method based on modification of the Vogel Conflict test, a simple reliable conflict procedure for testing antianxiety agents (see: Vogel, et al., Psychopharmacologia, (Berl.) 21, pp. 1-7, 1971). […] No useful antianxiety activity has been ascribed to BMY 28674 previously.

[5] = Previous laboratory testing for antianxiety properties; conditions: laboratory methods developed for azapirone compounds
[6] = cited from earlier work; remark: listed apart in the source

SMILES | suppression of rat pup ultrasonic vocalization [1] | ED50 [1] | anxiolytic activity in rat pup isolation-induced ultrasonic vocalization model (in words) [1] | locomotor activity (in words) ([2]; 30 min prior to test) | inhibition of dorsal raphe neuronal firing (dorsal raphe neurons) | affinity for human 5-HT1A receptor (in words) (human 5-HT1A receptor) | further results
O=C1CC2(CCCC2)CC(=O)N1CCCCN1CCN(c2ncccn2)CC1 [Buspirone, reference compound] | dose-dependent suppression | 0.1 mg/kg | anxiolytic-like activity | impaired | potently inhibits | – | concentration at 2 h (clinical; human, in vivo, po): < 1 ng/mL
Oc1cnc(N2CCNCC2)nc1 [5-hydroxy-1PP, reference compound] | – | – | – | – | – | – | abundance as metabolite in human urine ([3]; in vivo): most
O=C1CC2(CCCC2)C(O)C(=O)N1CCCCN1CCN(c2ncccn2)CC1 (stereo not drawn) [BMY 28674, 6-hydroxy-8-[4-[4-(2-pyrimidinyl)-piperazinyl]-butyl]-8-azaspiro[4.5]-7,9-dione] | dose-dependent suppression | 0.13 mg/kg | anxiolytic-like activity | significantly impaired | – | binding affinity that approaches that of buspirone; also recorded: binding affinity closer to that of buspirone | doses for anxiolytic activity relative to those required to suppress motor activity ([1]; vs suppression of motor activity): much lower doses; ED50 ([2]; Rattus norvegicus, 0.5 h, 30 min prior to test, doses refer to weight of the salt, read-out: ID50 dose estimated to reduce locomotor activity): 0.41 mg/kg; ratio of doses impairing locomotor activity to doses suppressing ultrasonic calls ([2]; locomotor vs ultrasonic calls, 30 min): approximately 3 fold; blood concentration relative to 1-PP (clinical; after oral buspirone, BMY 28674 vs 1-PP): several-fold greater; also recorded: several-fold higher; blood levels compared to buspirone (in words) (clinical; oral buspirone BID, 12-hour dosing period): much higher and are sustained compared to buspirone; antianxiety response in the Vogel test [4]: did not elicit an antianxiety response; abundance as metabolite in human urine ([3]; after buspirone): second most abundant metabolite; antianxiety activity in previous testing [5]: no anxiolytic activity was detected; also recorded: No significant antianxiety activity
c1cnc(N2CCNCC2)nc1 [1-PP, 1-(2-pyrimidinyl)piperazine] | – | – | – | – | weak inhibition | does not demonstrate binding | anxiogenic properties in other behavioral testing paradigms ([6]; Cervo et al., 1988, Martin, 1991): displayed anxiogenic properties; antianxiety activity in certain other preclinical tests ([6]; U.S. Pat. No. 4,409,223): some antianxiety activity
